{"source": "patent US6030960A", "about": "“Method of treating hepatitis virus infections” (priority 1998, dated 2000)", "assay_type_in_all_cases": "cell-based", "key": {"Hepatitis B virus [1]": {"test_system": "Hepatitis B virus", "assay": "Effect of alkyl lipid on HBV induction of antigen markers, DNA and RNA in persistently infected human HEP-G2 cell cultures (Table 8)", "conditions": "Hepatitis B virus, HepG2, 216 h", "method": "Further analyses were carried out with compound CP-51. Again, the cells were treated for nine days at 37° C. The overlay medium was harvested to measure levels of HBsAg, HBeAg, HBcAg, virion DNA, RI DNA and RNA levels. HBsAg and HBeAg were assayed by EIA (Abbott Laboratories). HBcAg was assayed by a solid phase EIA. HBV RNA was analyzed by Northern blot hybridization using a ^32 P-labelled 3.2 Kb genomic probe. Intracellular HBV RNA and RI HBV DNA was quantitated using a AMBIS beta scanner."}, "Hepatitis B virus [2]": {"test_system": "Hepatitis B virus", "assay": "Effect on synthesis of antigen markers in persistently infected human HEP G2 cell cultures (Table 7)", "conditions": "nine days; for activity at 10 µM: Hepatitis B virus, HepG2, 216 h", "how_it_was_run": "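Persistently infected HepG2 cells treated with compound for nine days at 37° C. Culture medium then harvested: HBsAg and HBeAg quantified by EIA, virion DNA by hybridisation-based DNA measurement. Sensitivity cut-off 0.1 pg DNA/ml medium.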"}, "Hepatitis B virus [3]": {"test_system": "Hepatitis B virus", "assay": "Effects of CP-51 on HBV-induced DNA and RNA synthesis (Table 4)", "conditions": "for mrna remaining at 10 µM / activity at 10 µM: Hepatitis B virus, HepG2, 216 h", "method": "(§1) HEP-G2 cells persistently infected with HBV were treated daily with fresh D-MEM containing 20% FBS and 10 μM compound. After 9 days incubation and treatment, the overlay medium was harvested to assay the quantity of Hepatitis B virus s antigen (HBsAg) and HBeAg by EIA (Abbott Laboratories). The overlay medium was diluted to levels of antigen in the linear range of the assay. Standard curves using dilutions of positive HBsAg and HBeAg controls were included in each assay. Virion DNA was assayed using the method set forth in Korba and Gerin, Antiviral Res., 19, 5,5-70 (1992), incorporated by reference herein. HBV DNA was extracted from the overlay medium containing virus particles and analyzed by a slot-blot hybridization technique using ^32 P-labelled 3.2 Kb Eco R1 HBV DNA fragment by comparisons to HBV standards present on nitrocellulose filters using an AMBIS beta scanner. EC90 values (90% effective concentration, i.e., drug concentration which induces a 90% decrease in the levels of HBV DNA replication intermediates in treated versus control cells) were calculated by linear regression analysis. The relative levels of HBsAg, HBeAg and virion DNA were calulated as a percentage of the average levels obtained from the untreated controls.\nExperiments were performed to determine the effects of CP-51 on HBV induced DNA and RNA syntheses. HEP-G2 cells persistently infected with HBV were treated daily with fresh D-MEM containing 20% FBS and 10 μM compound. After 9 days incubation and treatment the cells and overlay medium were harvested separately to assay the quantity of nucleic acids. Details of the methodology of the assays are given in Section B above. Extracellular virion DNA in untreated cells ranged from 50 to 150 pg/ml in the overlay medium. Intracellular HBV DNA replication intermediates (RI) in untreated cells ranged from 50 to 100 pg/μg cell DNA. Hybridization analysis results in about 1 pg intracellular HBV DNA/μg cellular DNA to 2-3 genomic copies per cell and 1.0 pg of extracellular HBV DNA/ml overlay medium to […] viral particles/ml. HBV RNA was analyzed by Northern blot hybridization analysis using a ^32 P-labeled 3.2 Kb gel-purified cloned genomic probe. Quantitive analysis of intracellular HBV DNA anc 14BV RNA was performed using an AMBIS beta scanner."}, "Hepatitis B virus [4]": {"test_system": "Hepatitis B virus", "assay": "Anti-hepatitis B virus activity in HEP-G2 cells persistently infected with HBV (Table 2)", "conditions": "Hepatitis B virus, HepG2, 216 h", "how_it_was_run": "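HBV-persistently infected HepG2 cells were dosed daily with 10 μM compound in 20% FBS medium for 9 days. Medium HBsAg and HBeAg were measured by EIA and virion DNA by slot-blot hybridisation, each relative to untreated controls. EC90 (90% drop in HBV DNA replication intermediates) came from linear regression.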"}, "[5]": {"assay": "Cytotoxicity in HBV persistently infected human HEP G2 cells, neutral red dye uptake (Table 5)", "conditions": "human, hep-g2 cells, read-out: % of Control Neutral Red Dye Uptake", "how_it_was_run": "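HBV-transfected HEP-G2 monolayers in RPMI-1640 were given compound at four serial concentrations in triplicate for nine days at 37 °C, with periodic medium replacement. Toxicity from 0.01% neutral red uptake (A510), as percent of nine untreated control wells on the same plate.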"}, "Hepatitis B virus [6]": {"test_system": "Hepatitis B virus", "assay": "CP-51 against HBV-induced antigen syntheses in HEP-G2 cells persistently infected with HBV (Table 3)", "conditions": "for activity at 10 µM: Hepatitis B virus, HepG2, 216 h", "method": "as §1\nIn contrast, CP-51 inhibited HBeAg and HBcAg syntheses by 76 and 68%, respectively."}, "[7]": {"conditions": "read-out: Relative Level of HBeAg"}, "[8]": {"conditions": "read-out: Relative Level of HBsAg"}, "[9]": {"conditions": "read-out: Relative Level of Total RNA"}, "[10]": {"conditions": "read-out: Relative Level of Virion DNA"}}, "note": "Where “and” joins values, the source holds several entries; their conditions need not be identical. Equal values may be shown once. Read-outs that look alike come from different tables or passages of the source."}
{"smiles": "Nc1ccn([C@H]2CC[C@@H](CO)O2)c(=O)n1", "note": "[2',3'-dideoxycytidine, 2', 3'-dideoxycytidine, reference compound]", "values": [{"measurement": "activity at 10 µM", "setting": "Hepatitis B virus [1]; read-out: Relative Level of HBcAg", "result": 102, "unit": "%"}, {"measurement": "activity at 10 µM", "setting": "Hepatitis B virus [1]; [7]", "result": 95, "unit": "%"}, {"measurement": "activity at 10 µM", "setting": "Hepatitis B virus [1]; [8]", "result": 96, "unit": "%"}, {"measurement": "activity at 10 µM", "setting": "Hepatitis B virus [1]; read-out: Relative Level of Intracellular HBV-DNA", "result": 6, "unit": "%"}, {"measurement": "activity at 10 µM", "setting": "Hepatitis B virus [1]; read-out: Relative Level of RI DNA", "result": 46, "unit": "%"}, {"measurement": "activity at 10 µM", "setting": "Hepatitis B virus [1]; [9]", "result": 92, "unit": "%"}, {"measurement": "activity at 10 µM", "setting": "Hepatitis B virus [1]; [10]", "result": 2, "unit": "%"}, {"measurement": "Relative Level of HBeAg", "setting": "Hepatitis B virus [2]; 10 μM, 12960 min", "result": "115 % of Untreated Control and 98 % of Untreated Control"}, {"measurement": "Relative Level of HBsAg", "setting": "Hepatitis B virus [2]; 10 μM, 12960 min", "result": "112 % of Untreated Control and 102 % of Untreated Control"}, {"measurement": "Relative Level of Virion DNA", "setting": "Hepatitis B virus [2]; 10 μM, 12960 min", "result": "2 % of Untreated Control"}, {"measurement": "activity at 10 µM", "setting": "Hepatitis B virus [2]; read-out: Relative Level of HBeAg, 10 μM", "result": 101, "unit": "%"}, {"measurement": "activity at 10 µM", "setting": "Hepatitis B virus [2]; read-out: Relative Level of HBsAg, 10 μM", "result": 100, "unit": "%"}, {"measurement": "activity at 10 µM", "setting": "Hepatitis B virus [2]; read-out: Relative Level of Virion DNA, 10 μM", "result": 2, "unit": "%"}, {"measurement": "effect on HBV-induced DNA and RNA syntheses", "setting": "Hepatitis B virus [3]; 10 μM, in words", "result": "inhibited HBV-induced DNA synthesis but not RNA syntheses"}, {"measurement": "mrna remaining at 10 µM", "setting": "Hepatitis B virus [3]; read-out: Relative Level of 2.1 Kb RNA", "result": 105, "unit": "%"}, {"measurement": "activity at 10 µM", "setting": "Hepatitis B virus [3]; read-out: Relative Level of 3.2 Kb DNA", "result": 46, "unit": "%"}, {"measurement": "mrna remaining at 10 µM", "setting": "Hepatitis B virus [3]; read-out: Relative Level of 3.6 Kb RNA", "result": 92, "unit": "%"}, {"measurement": "activity at 10 µM", "setting": "Hepatitis B virus [3]; read-out: Relative Level of HBV RI", "result": 6, "unit": "%"}, {"measurement": "mrna remaining at 10 µM", "setting": "Hepatitis B virus [3]; [9]", "result": 92, "unit": "%"}, {"measurement": "activity at 10 µM", "setting": "Hepatitis B virus [3]; [10]", "result": 2, "unit": "%"}, {"measurement": "activity at 10 µM", "setting": "Hepatitis B virus [4]; [7]", "result": 108, "unit": "%"}, {"measurement": "activity at 10 µM", "setting": "Hepatitis B virus [4]; [8]", "result": 106, "unit": "%"}, {"measurement": "activity at 10 µM", "setting": "Hepatitis B virus [4]; [10]", "result": 2, "unit": "%"}, {"measurement": "viability at 216 h, 10 µM", "setting": "[5]; Trial 1", "result": "101 ± 2", "unit": "%"}, {"measurement": "viability at 216 h, 30 µM", "setting": "[5]; Trial 1", "result": "100 ± 1", "unit": "%"}, {"measurement": "viability at 216 h, 100 µM", "setting": "[5]; Trial 1", "result": "97 ± 2", "unit": "%"}, {"measurement": "viability at 216 h, 300 µM", "setting": "[5]; Trial 1", "result": "34 ± 4", "unit": "%"}, {"measurement": "viability at 216 h, 10 µM", "setting": "[5]; Trial 2", "result": "101 ± 3", "unit": "%"}, {"measurement": "viability at 216 h, 30 µM", "setting": "[5]; Trial 2", "result": "102 ± 2", "unit": "%"}, {"measurement": "viability at 216 h, 300 µM", "setting": "[5]; Trial 2", "result": "40 ± 4", "unit": "%"}, {"measurement": "viability at 216 h, 1000 µM", "setting": "[5]; Trial 2, 1000 μM", "result": "12 ± 5", "unit": "%"}, {"measurement": "viability at 216 h, 10 µM", "setting": "[5]; Trial 3", "result": "100 ± 1", "unit": "%"}, {"measurement": "viability at 216 h, 30 µM", "setting": "[5]; Trial 3", "result": "102 ± 1", "unit": "%"}, {"measurement": "viability at 216 h, 100 µM", "setting": "[5]; Trial 3", "result": "99 ± 2", "unit": "%"}, {"measurement": "viability at 216 h, 300 µM", "setting": "[5]; Trial 3", "result": "35 ± 2", "unit": "%"}, {"measurement": "inhibitory activity against HBV-induced antigen syntheses", "setting": "Hepatitis B virus [6]; 10 μM, in words", "result": "no inhibitory activity"}, {"measurement": "activity at 10 µM", "setting": "Hepatitis B virus [6]; read-out: Relative Levels of HBcAg", "result": 102, "unit": "%"}, {"measurement": "activity at 10 µM", "setting": "Hepatitis B virus [6]; read-out: Relative Levels of HBeAg", "result": 95, "unit": "%"}, {"measurement": "activity at 10 µM", "setting": "Hepatitis B virus [6]; read-out: Relative Levels of HBsAg", "result": 96, "unit": "%"}]}
